These results are taken from ChEMBL document CHEMBL1909046, “DrugMatrix in vitro pharmacology data”.

Broadly, the IC50 is the point on the concentration scale where inhibition reaches its midpoint.

Chain of Sodium-dependent noradrenaline transporter (P23975 whole entry): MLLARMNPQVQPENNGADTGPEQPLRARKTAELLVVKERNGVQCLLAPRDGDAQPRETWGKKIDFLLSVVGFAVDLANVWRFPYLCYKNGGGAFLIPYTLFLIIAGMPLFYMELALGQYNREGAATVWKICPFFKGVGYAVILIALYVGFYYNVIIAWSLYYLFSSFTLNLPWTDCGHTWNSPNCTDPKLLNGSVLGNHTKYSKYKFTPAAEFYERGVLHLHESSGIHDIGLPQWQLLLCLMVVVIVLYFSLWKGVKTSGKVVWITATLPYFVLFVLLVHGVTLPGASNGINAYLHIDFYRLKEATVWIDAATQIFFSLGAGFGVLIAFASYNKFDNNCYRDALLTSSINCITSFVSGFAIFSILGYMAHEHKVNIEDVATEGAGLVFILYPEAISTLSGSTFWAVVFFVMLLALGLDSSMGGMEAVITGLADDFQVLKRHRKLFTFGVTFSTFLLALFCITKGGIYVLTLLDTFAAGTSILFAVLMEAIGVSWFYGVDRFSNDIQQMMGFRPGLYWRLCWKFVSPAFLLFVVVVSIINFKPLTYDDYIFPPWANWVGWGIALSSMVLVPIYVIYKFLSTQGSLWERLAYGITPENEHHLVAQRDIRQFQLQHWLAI

The first test has as its target Sodium-dependent noradrenaline transporter (Homo sapiens, UniProt P23975). Description: DRUGMATRIX: Norepinephrine Transporter radioligand binding (ligand: [125I] RTI-55). The test is classed as cell membranes, MDCK, Membrane. Particulars: mdck; Not Active = under 50% inhibition at 10 µM.
Consider `C#C[C@]1(OC(C)=O)CC[C@H]2[C@@H]3CCC4=C[C@@H](OC(C)=O)CC[C@@H]4[C@H]3CC[C@@]21C` [ETHYNODIOL DIACETATE], for which the IC50 entry was “Not Active”.

As for `COc1cc([C@@H]2c3cc4c(cc3[C@@H](O[C@@H]3O[C@@H]5CO[C@@H](C)O[C@H]5[C@H](O)[C@H]3O)[C@H]3COC(=O)[C@H]23)OCO4)cc(OC)c1O` [ETOPOSIDE], the 50% inhibitory concentration (IC50) result is recorded as “Not Active”.

On to `C=CCc1ccc(O)c(OC)c1` [EUGENOL], for which the IC50 entry is reported as “Not Active”.

In the case of `CC(C(=O)O)c1cccc(Oc2ccccc2)c1` (stereo not given) [FENOPROFEN], the concentration for half-maximal inhibition (IC50) entry is “Not Active”.

With `CC(C)(C)NC(=O)[C@H]1CC[C@H]2[C@@H]3CC[C@H]4NC(=O)C=C[C@]4(C)[C@H]3CC[C@]12C` [FINASTERIDE], the half-maximal inhibitory concentration (IC50) result is “Not Active”.

In another test the target is cGMP-specific 3',5'-cyclic phosphodiesterase (Homo sapiens, UniProt O76074). The test can be described thus: DRUGMATRIX: Phosphodiesterase PDE5 enzyme inhibition (substrate: [3H]cGMP + cGMP). In kind it is tissue-based, Platelet. To be noted: platelet; Not Active = under 50% inhibition at 10 µM.
`C#C[C@]1(OC(C)=O)CC[C@H]2[C@@H]3CCC4=C[C@@H](OC(C)=O)CC[C@@H]4[C@H]3CC[C@@]21C` [ETHYNODIOL DIACETATE]: the IC50 entry was “Not Active”.

Take `COc1cc([C@@H]2c3cc4c(cc3[C@@H](O[C@@H]3O[C@@H]5CO[C@@H](C)O[C@H]5[C@H](O)[C@H]3O)[C@H]3COC(=O)[C@H]23)OCO4)cc(OC)c1O` [ETOPOSIDE]: the IC50 result is given as “Not Active”.

As to `C=CCc1ccc(O)c(OC)c1` [EUGENOL], the IC50 result was “Not Active”.

With `CC(C(=O)O)c1cccc(Oc2ccccc2)c1` (stereo not given) [FENOPROFEN], the IC50 result is “Not Active”.

Consider `CC(C)(C)NC(=O)[C@H]1CC[C@H]2[C@@H]3CC[C@H]4NC(=O)C=C[C@]4(C)[C@H]3CC[C@]12C` [FINASTERIDE], for which the IC50 result is “Not Active”.

For another test, the target named is T1, Polyunsaturated fatty acid lipoxygenase ALOX15 (Oryctolagus cuniculus, UniProt P12530).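 Note: inhibition of 15-lipoxygenase enzyme activity measured with linoleic acid as the substrate; in other assays of this panel Not Active means under 50% inhibition at 10 µM.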
T1 sequence (P12530 whole entry): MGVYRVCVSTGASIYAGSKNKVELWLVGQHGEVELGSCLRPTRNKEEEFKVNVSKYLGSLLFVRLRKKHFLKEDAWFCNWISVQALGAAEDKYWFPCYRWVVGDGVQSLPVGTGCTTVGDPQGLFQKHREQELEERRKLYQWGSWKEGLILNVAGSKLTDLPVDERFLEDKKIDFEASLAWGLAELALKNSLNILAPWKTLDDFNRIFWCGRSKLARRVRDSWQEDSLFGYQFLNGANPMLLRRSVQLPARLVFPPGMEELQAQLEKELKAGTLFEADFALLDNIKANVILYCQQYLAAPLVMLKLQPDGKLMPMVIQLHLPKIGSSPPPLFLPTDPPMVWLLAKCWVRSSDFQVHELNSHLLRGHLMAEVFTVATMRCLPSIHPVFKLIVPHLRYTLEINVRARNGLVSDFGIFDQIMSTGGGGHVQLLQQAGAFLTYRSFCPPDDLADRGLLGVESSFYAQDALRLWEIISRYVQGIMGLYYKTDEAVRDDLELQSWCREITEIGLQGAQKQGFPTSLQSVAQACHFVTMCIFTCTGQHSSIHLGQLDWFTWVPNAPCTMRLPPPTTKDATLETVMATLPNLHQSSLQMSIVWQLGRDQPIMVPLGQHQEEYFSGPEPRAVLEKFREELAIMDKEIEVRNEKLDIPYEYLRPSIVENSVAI
Description: biochemical. In kind it is tissue-based, Reticulocytes. Particulars: read-out: IC50.
Take `COc1cc([C@@H]2c3cc4c(cc3[C@@H](O[C@@H]3O[C@@H]5CO[C@@H](C)O[C@H]5[C@H](O)[C@H]3O)[C@H]3COC(=O)[C@H]23)OCO4)cc(OC)c1O` [ETOPOSIDE]: the IC50 came out at 3.19 µM.

Staying with this test, now noted: reticulocytes.
`C#C[C@]1(OC(C)=O)CC[C@H]2[C@@H]3CCC4=C[C@@H](OC(C)=O)CC[C@@H]4[C@H]3CC[C@@]21C` [ETHYNODIOL DIACETATE]: the 50% inhibitory concentration (IC50) entry was “Not Active”.

`C=CCc1ccc(O)c(OC)c1` [EUGENOL]: the IC50 result is listed as “Not Active”.

In the case of `CC(C(=O)O)c1cccc(Oc2ccccc2)c1` (stereo not given) [FENOPROFEN], the half-maximal inhibitory concentration (IC50) entry is “Not Active”.

For the compound `CC(C)(C)NC(=O)[C@H]1CC[C@H]2[C@@H]3CC[C@H]4NC(=O)C=C[C@]4(C)[C@H]3CC[C@]12C` [FINASTERIDE], the IC50 result is recorded as “Not Active”.

In a further test the target is Vasopressin V1a receptor (Homo sapiens, UniProt P37288). Note: in other assays of this panel Not Active means under 50% inhibition at 10 µM.
Chain of Vasopressin V1a receptor (P37288 whole entry): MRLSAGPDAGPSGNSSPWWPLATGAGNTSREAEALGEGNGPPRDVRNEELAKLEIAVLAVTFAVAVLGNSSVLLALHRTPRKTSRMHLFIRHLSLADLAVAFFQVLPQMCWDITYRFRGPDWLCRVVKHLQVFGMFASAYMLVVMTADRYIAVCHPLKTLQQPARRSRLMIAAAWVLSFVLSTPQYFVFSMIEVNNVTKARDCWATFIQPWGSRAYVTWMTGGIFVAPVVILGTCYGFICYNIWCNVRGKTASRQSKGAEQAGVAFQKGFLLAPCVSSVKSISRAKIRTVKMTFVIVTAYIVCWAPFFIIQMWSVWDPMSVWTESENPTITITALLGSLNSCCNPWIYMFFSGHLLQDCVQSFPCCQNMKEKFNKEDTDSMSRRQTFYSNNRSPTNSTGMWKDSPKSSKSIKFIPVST
Assay: not given
The test is classed as cell membranes, Membrane. Particulars: hek293.
With `C#C[C@]1(OC(C)=O)CC[C@H]2[C@@H]3CCC4=C[C@@H](OC(C)=O)CC[C@@H]4[C@H]3CC[C@@]21C` [ETHYNODIOL DIACETATE], the concentration for half-maximal inhibition (IC50) result is “Not Active”.

For `COc1cc([C@@H]2c3cc4c(cc3[C@@H](O[C@@H]3O[C@@H]5CO[C@@H](C)O[C@H]5[C@H](O)[C@H]3O)[C@H]3COC(=O)[C@H]23)OCO4)cc(OC)c1O` [ETOPOSIDE], the IC50 result is on record as “Not Active”.

`C=CCc1ccc(O)c(OC)c1` [EUGENOL]: the IC50 entry was “Not Active”.

On to `CC(C(=O)O)c1cccc(Oc2ccccc2)c1` (stereo not given) [FENOPROFEN], for which the half-maximal inhibitory concentration (IC50) entry is reported as “Not Active”.

With `CC(C)(C)NC(=O)[C@H]1CC[C@H]2[C@@H]3CC[C@H]4NC(=O)C=C[C@]4(C)[C@H]3CC[C@]12C` [FINASTERIDE], the IC50 entry is reported as “Not Active”.

For the next test, the target named is T2, Cathepsin G (Homo sapiens, UniProt P08311).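 Note: inhibition of Cathepsin G enzyme activity, tested on an AMC-conjugated peptide substrate; in other assays of this panel Not Active means under 50% inhibition at 10 µM.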
T2 sequence (P08311 whole entry): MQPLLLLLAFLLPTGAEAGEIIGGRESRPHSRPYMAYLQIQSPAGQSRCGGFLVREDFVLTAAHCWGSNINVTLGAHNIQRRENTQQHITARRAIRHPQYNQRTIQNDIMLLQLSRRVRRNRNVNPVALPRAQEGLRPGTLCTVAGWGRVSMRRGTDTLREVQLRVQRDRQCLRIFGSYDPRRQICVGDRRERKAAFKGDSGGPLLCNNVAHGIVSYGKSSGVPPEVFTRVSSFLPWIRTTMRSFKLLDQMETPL
Assay: not given
To be noted: neutrophil. In kind it is tissue-based.
`C#C[C@]1(OC(C)=O)CC[C@H]2[C@@H]3CCC4=C[C@@H](OC(C)=O)CC[C@@H]4[C@H]3CC[C@@]21C` [ETHYNODIOL DIACETATE]: the 50% inhibitory concentration (IC50) result was “Not Active”.

Turning to `COc1cc([C@@H]2c3cc4c(cc3[C@@H](O[C@@H]3O[C@@H]5CO[C@@H](C)O[C@H]5[C@H](O)[C@H]3O)[C@H]3COC(=O)[C@H]23)OCO4)cc(OC)c1O` [ETOPOSIDE], the half-inhibitory concentration (IC50) entry is given as “Not Active”.

Consider `C=CCc1ccc(O)c(OC)c1` [EUGENOL], for which the concentration for half-maximal inhibition (IC50) entry was “Not Active”.

For `CC(C(=O)O)c1cccc(Oc2ccccc2)c1` (stereo not given) [FENOPROFEN], the 50% inhibitory concentration (IC50) entry is recorded as “Not Active”.

With `CC(C)(C)NC(=O)[C@H]1CC[C@H]2[C@@H]3CC[C@H]4NC(=O)C=C[C@]4(C)[C@H]3CC[C@]12C` [FINASTERIDE], the half-maximal inhibitory concentration (IC50) entry is “Not Active”.

The target in the next test is Mu-type opioid receptor (Homo sapiens, UniProt P35372). The test can be described thus: DRUGMATRIX: Opiate mu (OP3, MOP) radioligand binding (ligand: [3H] Diprenorphine). In kind it is cell membranes, CHO-K1, Membrane. To be noted: cho-k1; Not Active = under 50% inhibition at 10 µM.
Chain of Mu-type opioid receptor (P35372 whole entry): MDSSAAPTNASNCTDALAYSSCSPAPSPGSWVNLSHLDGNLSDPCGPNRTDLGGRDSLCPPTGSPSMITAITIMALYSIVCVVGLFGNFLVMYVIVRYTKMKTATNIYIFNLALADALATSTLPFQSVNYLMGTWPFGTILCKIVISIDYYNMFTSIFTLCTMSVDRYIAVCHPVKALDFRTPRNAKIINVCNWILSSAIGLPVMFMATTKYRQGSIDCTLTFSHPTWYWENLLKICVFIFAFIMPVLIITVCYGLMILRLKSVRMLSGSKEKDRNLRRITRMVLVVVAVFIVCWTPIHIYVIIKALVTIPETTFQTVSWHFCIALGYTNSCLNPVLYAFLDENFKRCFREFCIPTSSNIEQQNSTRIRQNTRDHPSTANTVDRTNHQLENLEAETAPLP
Consider `C#C[C@]1(OC(C)=O)CC[C@H]2[C@@H]3CCC4=C[C@@H](OC(C)=O)CC[C@@H]4[C@H]3CC[C@@]21C` [ETHYNODIOL DIACETATE], for which the IC50 entry is reported as “Not Active”.

In the case of `COc1cc([C@@H]2c3cc4c(cc3[C@@H](O[C@@H]3O[C@@H]5CO[C@@H](C)O[C@H]5[C@H](O)[C@H]3O)[C@H]3COC(=O)[C@H]23)OCO4)cc(OC)c1O` [ETOPOSIDE], the half-maximal inhibitory concentration (IC50) entry is given as “Not Active”.

In the case of `C=CCc1ccc(O)c(OC)c1` [EUGENOL], the IC50 entry is given as “Not Active”.

On to `CC(C(=O)O)c1cccc(Oc2ccccc2)c1` (stereo not given) [FENOPROFEN], for which the IC50 entry is “Not Active”.

For `CC(C)(C)NC(=O)[C@H]1CC[C@H]2[C@@H]3CC[C@H]4NC(=O)C=C[C@]4(C)[C@H]3CC[C@]12C` [FINASTERIDE], the 50% inhibitory concentration (IC50) result is reported as “Not Active”.

A further test addresses T3, Alpha-2C adrenergic receptor (Homo sapiens, UniProt P18825).
T3 sequence (P18825 whole entry): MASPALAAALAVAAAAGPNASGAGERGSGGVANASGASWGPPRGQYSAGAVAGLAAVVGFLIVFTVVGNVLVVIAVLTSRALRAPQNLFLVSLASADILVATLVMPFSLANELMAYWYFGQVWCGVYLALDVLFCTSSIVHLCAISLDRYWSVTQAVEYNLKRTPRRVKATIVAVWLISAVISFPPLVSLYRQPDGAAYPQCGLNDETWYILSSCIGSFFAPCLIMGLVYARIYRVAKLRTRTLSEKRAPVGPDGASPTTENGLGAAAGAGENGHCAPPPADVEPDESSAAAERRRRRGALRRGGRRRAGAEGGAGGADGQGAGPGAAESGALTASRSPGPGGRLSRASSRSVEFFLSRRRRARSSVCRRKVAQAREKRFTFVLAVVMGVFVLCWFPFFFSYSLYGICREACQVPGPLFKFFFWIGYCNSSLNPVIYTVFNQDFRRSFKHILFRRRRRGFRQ
The test can be described thus: DRUGMATRIX: Adrenergic Alpha-2C radioligand binding (ligand: [3H] MK-912). Particulars: sf9. The test is classed as cell membranes, Sf9, Membrane.
As to `C#C[C@]1(OC(C)=O)CC[C@H]2[C@@H]3CCC4=C[C@@H](OC(C)=O)CC[C@@H]4[C@H]3CC[C@@]21C` [ETHYNODIOL DIACETATE], the IC50 entry was “Not Active”.

Consider `COc1cc([C@@H]2c3cc4c(cc3[C@@H](O[C@@H]3O[C@@H]5CO[C@@H](C)O[C@H]5[C@H](O)[C@H]3O)[C@H]3COC(=O)[C@H]23)OCO4)cc(OC)c1O` [ETOPOSIDE], for which the 50% inhibitory concentration (IC50) entry is listed as “Not Active”.

As to `C=CCc1ccc(O)c(OC)c1` [EUGENOL], the IC50 entry is “Not Active”.

As to `CC(C(=O)O)c1cccc(Oc2ccccc2)c1` (stereo not given) [FENOPROFEN], the IC50 entry was “Not Active”.

`CC(C)(C)NC(=O)[C@H]1CC[C@H]2[C@@H]3CC[C@H]4NC(=O)C=C[C@]4(C)[C@H]3CC[C@]12C` [FINASTERIDE]: the IC50 entry is listed as “Not Active”.
